pKi: −log10 of the molar value. Where “and” joins values, the source holds several entries; their conditions need not be identical. Equal values may be shown once.

Consider nine compounds from patent US7446199B2, “Compositions useful as inhibitors of protein kinases” (Vertex Pharmaceuticals Incorporated, priority 2003, dated 2008).

Experiment [1] deals with c-Met (Homo sapiens, UniProt P08581). Nature of the experiment: Ki determination for the inhibition of c-Met, coupled enzyme system. The experiment is classed as biochemical. Particulars: 200 μM ATP, 10 μM polyGluTyr, 80 nM c-Met, 30° C. Put shortly: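 Coupled pyruvate kinase/lactate dehydrogenase NADH assay with 80 nM c-Met, 200 μM ATP, 10 μM polyGluTyr in pH 7.5 HEPES, 1.5% DMSO at 30° C. Compound (0.006–12.5 μM final, 12-point) preincubated 10 min; ATP started reaction, rates read over 10 min; Ki derived from rate versus inhibitor concentration.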
Chain of c-Met (P08581 25-1390): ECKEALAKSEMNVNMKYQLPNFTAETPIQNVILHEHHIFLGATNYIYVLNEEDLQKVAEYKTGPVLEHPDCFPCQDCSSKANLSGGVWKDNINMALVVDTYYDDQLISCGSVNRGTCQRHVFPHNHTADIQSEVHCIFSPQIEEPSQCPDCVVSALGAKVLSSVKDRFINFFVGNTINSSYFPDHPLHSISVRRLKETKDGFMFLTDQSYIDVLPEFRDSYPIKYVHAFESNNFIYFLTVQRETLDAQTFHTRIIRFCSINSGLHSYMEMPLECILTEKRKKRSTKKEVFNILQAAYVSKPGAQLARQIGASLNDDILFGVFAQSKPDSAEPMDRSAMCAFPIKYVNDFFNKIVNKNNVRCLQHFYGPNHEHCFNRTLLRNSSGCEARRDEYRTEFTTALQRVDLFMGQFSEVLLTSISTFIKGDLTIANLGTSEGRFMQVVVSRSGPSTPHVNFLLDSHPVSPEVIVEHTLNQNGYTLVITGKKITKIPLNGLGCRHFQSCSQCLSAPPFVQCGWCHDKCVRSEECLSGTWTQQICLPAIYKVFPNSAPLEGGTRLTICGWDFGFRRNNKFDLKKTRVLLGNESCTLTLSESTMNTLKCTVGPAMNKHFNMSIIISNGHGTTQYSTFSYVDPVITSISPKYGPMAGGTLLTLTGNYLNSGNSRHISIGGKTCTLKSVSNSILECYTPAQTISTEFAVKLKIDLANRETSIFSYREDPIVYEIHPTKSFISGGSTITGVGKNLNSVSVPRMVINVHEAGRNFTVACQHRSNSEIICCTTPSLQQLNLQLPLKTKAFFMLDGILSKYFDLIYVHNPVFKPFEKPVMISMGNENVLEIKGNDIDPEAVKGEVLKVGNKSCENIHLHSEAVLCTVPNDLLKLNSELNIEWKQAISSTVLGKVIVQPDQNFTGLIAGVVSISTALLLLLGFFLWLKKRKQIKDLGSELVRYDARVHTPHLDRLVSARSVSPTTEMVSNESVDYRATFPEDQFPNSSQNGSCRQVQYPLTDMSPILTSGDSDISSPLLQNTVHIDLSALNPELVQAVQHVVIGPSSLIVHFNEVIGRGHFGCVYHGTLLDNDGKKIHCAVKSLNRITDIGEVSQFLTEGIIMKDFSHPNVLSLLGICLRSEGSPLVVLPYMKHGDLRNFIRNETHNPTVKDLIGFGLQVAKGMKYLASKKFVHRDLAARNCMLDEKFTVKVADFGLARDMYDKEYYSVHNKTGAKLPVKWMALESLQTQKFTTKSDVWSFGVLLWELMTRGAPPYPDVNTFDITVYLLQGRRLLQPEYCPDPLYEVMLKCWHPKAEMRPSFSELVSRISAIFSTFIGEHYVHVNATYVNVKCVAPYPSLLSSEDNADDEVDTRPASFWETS

The target in experiment [2] is T1, FLT-3 (Homo sapiens, UniProt P36888).
T1 construct: 0.02% BSA and 3 nM FLT-3
T1 sequence (P36888 27-993): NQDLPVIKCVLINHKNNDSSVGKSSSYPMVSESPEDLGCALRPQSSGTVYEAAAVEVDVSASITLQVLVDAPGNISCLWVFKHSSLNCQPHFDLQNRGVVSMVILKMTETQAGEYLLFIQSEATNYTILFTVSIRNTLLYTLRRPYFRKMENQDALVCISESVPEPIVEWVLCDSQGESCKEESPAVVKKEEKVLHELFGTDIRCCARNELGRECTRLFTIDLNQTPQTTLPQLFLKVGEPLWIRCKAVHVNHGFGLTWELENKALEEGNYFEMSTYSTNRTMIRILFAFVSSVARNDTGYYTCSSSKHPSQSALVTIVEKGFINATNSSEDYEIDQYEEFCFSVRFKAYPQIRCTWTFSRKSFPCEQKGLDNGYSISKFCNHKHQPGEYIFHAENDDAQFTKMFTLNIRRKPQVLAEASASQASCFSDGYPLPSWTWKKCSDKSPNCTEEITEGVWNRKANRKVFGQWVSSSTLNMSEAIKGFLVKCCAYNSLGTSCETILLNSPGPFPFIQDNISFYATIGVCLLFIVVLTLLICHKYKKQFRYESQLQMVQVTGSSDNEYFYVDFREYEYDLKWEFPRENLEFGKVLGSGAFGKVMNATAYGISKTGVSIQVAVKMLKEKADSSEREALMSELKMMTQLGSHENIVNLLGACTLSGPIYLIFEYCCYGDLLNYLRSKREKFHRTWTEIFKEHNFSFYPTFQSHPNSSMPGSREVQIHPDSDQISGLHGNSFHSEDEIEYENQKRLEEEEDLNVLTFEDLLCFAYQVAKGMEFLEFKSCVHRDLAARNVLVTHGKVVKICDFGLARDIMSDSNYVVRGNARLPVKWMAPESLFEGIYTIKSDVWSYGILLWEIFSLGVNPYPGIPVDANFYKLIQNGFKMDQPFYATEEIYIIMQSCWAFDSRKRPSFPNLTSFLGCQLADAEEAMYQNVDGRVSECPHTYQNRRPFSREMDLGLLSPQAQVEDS
Nature of the experiment: Inhibition of FLT-3, radiometric filter-binding assay. Conditions: 90 μM ATP, 0.5 mg/mL pE4Y, room temperature. The format is biochemical. Put shortly:
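Radiometric filter-binding assay of FLT-3 (3 nM in Solution 2; final conc not stated) phosphorylating poly(Glu,Tyr) 4:1 (0.5 mg/mL) with 90 μM ATP plus [γ-33P]ATP, in HEPES pH 7.5, MgCl2, NaCl, DTT, BSA, 2.5% DMSO. 12-point titration, typically 0.01–5 μM, 20 min at room temperature; TCA-stopped, filtered, scintillation-counted; IC50 or Ki fitted.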

As for `N#CCC(=O)N1CCC(c2cnc3[nH]cc(-c4oncc4-c4cccc(F)c4F)c3c2)CC1` [Compound 64, 3-(4-{3-[4-(2,3-Difluoro-phenyl)-isoxazol-5-yl]-1H-pyrrolo[2,3-b]pyridin-5-yl}-piperidin-1-yl)-3-oxo-propionitrile], the pKi in experiment [1] was greater than 6.70; in experiment [2], 6.00 to 6.70.
Turning to `CN(C)CCNc1ccc(-c2cnc3[nH]cc(-c4nncn4-c4cccc(F)c4F)c3c2)cn1` [Compound 119, N′-(5-{3-[4-(2,3-Difluoro-phenyl)-4H-[1,2,4]triazol-3-yl]-1H-pyrrolo[2,3-b]pyridin-5-yl}-pyridin-2-yl)-N,N-dimethyl-ethane-1,2-diamine], the pKi is greater than 6.70 in experiment [1] and 6.00 to 6.70 in experiment [2].
`CN1CCN(C(=O)[C@H]2C[C@H]2c2cnc3[nH]cc(-c4oncc4-c4cccc(F)c4F)c3c2)CC1` (relative stereo) [Compound 143, cis-(2-{3-[4-(2,3-Difluoro-phenyl)-isoxazol-5-yl]-1H-pyrrolo[2,3-b]pyridin-5-yl}-cyclopropyl)-(4-methyl-piperazin-1-yl)-methanone]: the pKi in experiment [1] is 6.00 to 6.70 and 4.90 to 6.00; in experiment [2] it was 6.00 to 6.70.
As for `Nc1ccnc(-c2cnc3[nH]cc(-c4oncc4-c4cccc(F)c4F)c3c2)c1` [Compound 83, 2-{3-[4-(2,3-Difluoro-phenyl)-isoxazol-5-yl]-1H-pyrrolo [2,3-b]pyridin-5-yl}-pyridin-4-ylamine], the pKi was greater than 6.70 in experiment [1] and 4.90 to 6.00 in experiment [2].
The corresponding values for `C=Cc1cnc2[nH]cc(-c3oncc3-c3cccc(F)c3F)c2c1` [Compound 66, 3-[4-(2,3-Difluoro-phenyl)-isoxazol-5-yl]-5-vinyl-1H-pyrrolo[2,3-b]pyridine] are greater than 6.70 and 6.00 to 6.70.
In the case of `CC(=O)N1CCC(c2cnc3[nH]cc(-c4oncc4-c4cccc(F)c4F)c3c2)CC1` [Compound 63, 1-(4-{3-[4-(2,3-Difluoro-phenyl)-isoxazol-5-yl]-1H-pyrrolo[2,3-b]pyridin-5-yl}-piperidin-1-yl)-ethanone], the pKi in experiment [1] is greater than 6.70; in experiment [2] it was 6.00 to 6.70.
For the compound `Fc1cccc(-c2cnoc2-c2c[nH]c3ncc(C4CCNCC4)cc23)c1F` [Compound 62, 3-[4-(2,3-Difluoro-phenyl)-isoxazol-5-yl]-5-piperidin-4-yl-1H-pyrrolo[2,3-b]pyridine], the pKi was greater than 6.70 in experiment [1] and 6.00 to 6.70 in experiment [2].
With `Cc1noc(-c2c[nH]c3ncccc23)c1-c1cccc(F)c1F` [Compound 134, 3-[4-(2,3-Difluoro-phenyl)-3-methyl-isoxazol-5-yl]-1H-pyrrolo[2,3-b]pyridine], the pKi is 6.00 to 6.70 in experiment [1] and greater than 6.70 in experiment [2].
As for `CNc1ccc2c(-c3oncc3-c3cccc(F)c3F)c[nH]c2n1` [Compound 102, {3-[4-(2,3-Difluoro-phenyl)-isoxazol-5-yl]-1H-pyrrolo[2,3-b]pyridin-6-yl}-methyl-amine], the negative-log Ki (pKi) is greater than 6.70 in experiment [1] and 4.90 to 6.00 in experiment [2].
